Source: patent publication EP4793271A1, “NEUROPROTECTIVE AGENT” (National Center of Neurology and Psychiatry, priority 2023, dated 2025)
Where two headings read alike, the source gives them in different places.

Key:
[1] = target: T1, nicotinamide phosphoribosyl transferase (NAMPT) (Homo sapiens, UniProt P43490); assay: NAMPT activity measurement (NMN fluorescence detection); format: biochemical; settings: NAMPT recombinant protein, 10 µM Nam; for IC50: read-out: Evaluation on NAMPT inhibitory
T1 construct: purchased Medical & Biological Laboratories Co., Ltd. (MBL)
Summary of the method: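 Recombinant NAMPT reacted with 10 µM Nam, 0.5 µM PRPP, 2 µM ATP in Tris pH 7.4 buffer with MgCl2, DTT, BSA; product NMN quantified by fluorescence (ex 421/em 480 nm) after derivatization with 2-acetylbenzofuran. Compounds at 3 nM–10 µM; control-normalized signal used for IC50.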

[2] = tested on: primary cultured cells of mouse fetus-derived dorsal root ganglia (DRGs); assay: Suppression of axonal degeneration after axotomy in DRG explant culture; format: cell-based; settings: minimum concentration at which axonal degeneration was suppressed (DI 0.3 or less), 24 hours after axotomy; for minimal effective concentration: Mus musculus, read-out: Evaluation on protection against degeneration
Summary of the method: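 Embryonic ICR mouse DRG explants were cultured 7–8 days in nicotinamide-free neuronal medium with NGF, then axotomized by removing the cell bodies. Compound (100 pM–10 µM final, 0.1% DMSO) was added within 30 min, and neurites were imaged 24 h later. The result is the lowest concentration giving degeneration index ≤0.3.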

hSARM1 = target: T2, hSARM1 (Homo sapiens, UniProt Q6SZW1); assay: Human SARM1 activity measurement in HEK293 cells transiently transfected with ΔN-hSARM1 (PC6 fluorescent probe); format: cell-based; set-up: expressed in transfected cells; host or cells: HEK293, pcDNA3 expression vector
T2 sequence (Q6SZW1 28-724): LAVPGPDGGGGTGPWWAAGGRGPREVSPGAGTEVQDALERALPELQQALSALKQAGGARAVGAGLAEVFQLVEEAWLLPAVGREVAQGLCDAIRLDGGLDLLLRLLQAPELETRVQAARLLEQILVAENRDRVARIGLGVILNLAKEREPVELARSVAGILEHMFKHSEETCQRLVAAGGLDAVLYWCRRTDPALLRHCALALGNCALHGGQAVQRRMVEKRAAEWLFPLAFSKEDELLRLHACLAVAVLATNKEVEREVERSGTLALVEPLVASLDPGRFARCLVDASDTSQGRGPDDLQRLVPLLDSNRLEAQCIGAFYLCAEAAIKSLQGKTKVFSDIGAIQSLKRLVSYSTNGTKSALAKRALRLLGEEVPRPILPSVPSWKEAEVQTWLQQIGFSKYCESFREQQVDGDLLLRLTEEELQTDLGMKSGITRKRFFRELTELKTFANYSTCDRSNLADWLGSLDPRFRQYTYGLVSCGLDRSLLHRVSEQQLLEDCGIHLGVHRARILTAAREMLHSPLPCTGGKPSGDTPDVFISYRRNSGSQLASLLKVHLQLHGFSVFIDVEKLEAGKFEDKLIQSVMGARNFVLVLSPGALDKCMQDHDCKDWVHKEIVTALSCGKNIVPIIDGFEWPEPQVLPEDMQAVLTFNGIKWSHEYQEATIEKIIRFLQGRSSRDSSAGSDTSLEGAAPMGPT
Summary of the method: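 HEK293 cells in nicotinamide-free DMEM with 5 μM nicotinamide, transiently transfected with mitochondrial-targeting-deleted ΔN-hSARM1; PC6 base-exchange fluorescent probe (50 μM) plus compound (30 μM) added ~8 h post-transfection. Fluorescence (ex 405/em 525 nm) read ~48 h from transfection; inhibition % versus transfected DMSO control, untransfected background subtracted.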

[3] = inhibition rate, compound 30 µM, PC6 50 µM, HEK293 cells expressing ΔN-hSARM1, approximately 48 hours from transfection, read-out: Evaluation on hSARM1 inhibitory

T1 sequence (P43490 whole entry, species assumed): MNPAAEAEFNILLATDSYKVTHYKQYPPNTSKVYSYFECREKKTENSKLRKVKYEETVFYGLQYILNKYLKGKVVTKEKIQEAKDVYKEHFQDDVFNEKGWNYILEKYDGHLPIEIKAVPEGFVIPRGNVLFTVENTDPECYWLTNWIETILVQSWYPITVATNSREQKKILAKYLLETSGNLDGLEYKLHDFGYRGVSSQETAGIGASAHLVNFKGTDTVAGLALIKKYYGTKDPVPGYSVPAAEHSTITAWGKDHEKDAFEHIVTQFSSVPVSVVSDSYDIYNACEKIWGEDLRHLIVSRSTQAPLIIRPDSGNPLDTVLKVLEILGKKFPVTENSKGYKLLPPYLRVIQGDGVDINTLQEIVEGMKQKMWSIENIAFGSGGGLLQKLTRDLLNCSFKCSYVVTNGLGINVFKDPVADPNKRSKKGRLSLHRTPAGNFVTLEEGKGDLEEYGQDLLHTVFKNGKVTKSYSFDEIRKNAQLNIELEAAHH

Row | SMILES | Evaluation on NAMPT inhibitory [1] | inhibition at 30 µM (hSARM1; [3]) [%] | IC50 [1] [nM] | minimal effective concentration [2] [µM] | Evaluation on protection against degeneration [2] | inhibition at 30 µM (hSARM1; HEK293, read-out: Evaluation on hSARM1 inhibitory) [%]
1 | O=C(COc1ccc(OCc2ccccc2)cc1)Nc1ccc(CNC(=O)c2cccnc2)cn1 [Compound 178] |  | > 75 | ≥ 100 | 0.01 to 0.1 |  | 
2 | C/C(=C\C(=O)NCCOCCNC(=O)/C=C(\C)c1cccnc1)c1cccnc1 [compound 43] |  | > 75 | ≥ 100 | ≤ 0.01 |  | 
3 | O=C(Cc1ccc(OCc2ccccc2)cc1)Nc1ccc(CNC(=O)c2cccnc2)cn1 [Compound 177] |  | > 75 | ≥ 100 | 0.01 to 0.1 |  | 
4 | Cc1ccc(C(=O)Nc2ccc(CNC(=O)/C=C/c3cccnc3)cn2)cc1 [compound 78] | ○ | > 75 |  | ≤ 0.01 |  | 
5 | O=C(/C=C/c1ccc(C(F)(F)F)cc1)Nc1ccc(CNC(=O)c2cccnc2)cn1 [Compound 167] | ○ | > 75 |  | ≤ 0.01 |  | 
6 | COCOc1cccc(OCCCNC(=O)c2cccnc2)c1 [compound 25] | ○ | > 75 |  |  | B (0.01 µM < B ≤ 0.1 µM) | 
7 | O=C(/C=C/c1cccnc1)NCCOCCNC(=O)/C=C/c1cccnc1 [compound 37] | ○ | > 75 |  | 0.01 to 0.1 |  | 
8 | Cc1ccc(C(=O)Nc2ccc(CNC(=O)c3cccnc3)cn2)c(C)c1 [Compound 135] | ○ |  |  |  | A (A ≤ 0.01 µM) | > 75
9 | O=C(NCc1ccc(NC(=O)C2CCOCC2)cc1)c1cccnc1 [compound 108] |  | > 75 | ≥ 100 | ≤ 0.01 |  | 
10 | O=C(/C=C/c1cccnc1)Nc1ccc(CNC(=O)c2ccccc2)cc1 [compound 64] |  | > 75 | ≥ 100 | ≤ 0.01 |  | 
11 | O=C(CNC(=O)c1cccnc1)NCCNC(=O)CNC(=O)c1cccnc1 [compound 40] | ○ | > 10 |  | 0.1 to 1 |  | 
12 | COc1cccc(OCCOCCNC(=O)c2cccnc2)c1 [compound 99] | ○ | > 50 |  | 0.01 to 0.1 |  | 

Second part, led by results:

Row | Evaluation on NAMPT inhibitory [1] | inhibition at 30 µM (hSARM1; [3]) [%] | IC50 [1] [nM] | SMILES | minimal effective concentration [2] [µM] | Evaluation on protection against degeneration [2] | inhibition at 30 µM (hSARM1; HEK293, read-out: Evaluation on hSARM1 inhibitory) [%]
13 | ○ | > 75 |  | O=C(NCc1ccc(NC(=O)C2CCOCC2)nc1)c1cccnc1 [Compound 114] | ≤ 0.01 |  | 
14 | ○ | > 50 |  | O=C(NCc1ccc(NC(=O)c2ccccc2C(F)(F)F)nc1)c1cccnc1 [compound 81] | 0.01 to 0.1 |  | 
15 |  | > 75 | ≥ 100 | N#Cc1ccc(OCC(=O)Nc2ccc(CNC(=O)c3cccnc3)cn2)cc1 [Compound 174] | 0.01 to 0.1 |  | 
16 | ○ | > 75 |  | CCc1ccc(C(=O)Nc2ccc(CNC(=O)c3cccnc3)cn2)cc1 [Compound 131] | ≤ 0.01 |  | 
17 | ○ | > 25 |  | CCC(CC)C(=O)Nc1ccc(CNC(=O)c2cccnc2)cn1 [Compound 163] |  | A (A ≤ 0.01 µM) | 
18 |  | > 75 | ≥ 100 | Cc1ccc(CC(=O)Nc2ccc(CNC(=O)c3cccnc3)cn2)cc1 [Compound 143] | ≤ 0.01 |  | 
19 | ○ | > 75 |  | O=C(NCc1ccc(NC(=O)c2cccc(Cl)c2)nc1)c1cccnc1 [Compound 132] | ≤ 0.01 |  | 
20 |  | > 75 | ≥ 100 | CC(C)(C)CC(=O)Nc1ccc(CNC(=O)c2cccnc2)cn1 [Compound 182] | ≤ 0.01 |  | 
21 |  | > 50 | ≥ 100 | CC#CC(=O)Nc1ccc(CNC(=O)c2cccnc2)cn1 [Compound 183] | 0.01 to 0.1 |  | 
